# Patent US6914045B2, “Glycopeptide antibiotics” (Wyeth Holdings Corporation, priority 2001, dated 2005)
# Columns and labels:
# Assay in all cases: in vitro antibacterial evaluation, MIC by broth dilution
# Format in all cases: cell-based
# Staphylococcus sp. = conditions: broth dilution, 18 hours at 35° C.; for MIC Staphylococcus aureus (ATCC 29213): strain ATCC 29213; for MIC Staphylococcus aureus (GC 1131): strain GC 1131; for MIC Staphylococcus aureus (GC 3051): strain GC 3051; for MIC Staphylococcus aureus (GC 3053): strain GC 3053; for MIC Staphylococcus aureus (GC 4541): strain GC 4541; for MIC Staphylococcus aureus (GC 4542): strain GC 4542; for MIC Staphylococcus aureus-SMITH (GC 4543): strain GC 4543; for MIC Staphylococcus aureus (GC 4544): strain GC 4544; for MIC Staphylococcus aureus (GC 4545): strain GC 4545; for MIC Staphylococcus haemolyticus (GC 4546): strain GC 4546; for MIC Coagulase Negative Staphylococcus (GC 4547): strain GC 4547; for MIC Coagulase Negative Staphylococcus (GC 4548): strain GC 4548; for MIC Coagulase Negative Staphylococcus (GC 4549): strain GC 4549; for MIC Coagulase Negative Staphylococcus (GC 4551): strain GC 4551
# Outline: (§1)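 Test organisms, which included recent clinical isolates resistant to methicillin, penicillin and/or vancomycin, were inoculated at 5×10^5 CFU/mL into Muller-Hinton II […] containing antibiotic at 64-0.06 μg/mL. Minimum inhibitory concentrations were then read as the lowest level inhibiting growth.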
# Enterococcus sp. = conditions: broth dilution, 18 hours at 35° C.
# Outline: as §1
# Streptococcus sp. = conditions: broth dilution, 18 hours at 35° C.
# Outline: as §1
# Escherichia coli = conditions: 18 hours at 35° C.
structure (smiles),measurement,setting,value
"N=C1NCC(C(O)C2NC(=O)C(CC3CCC(OC4OC(CO)C(OC5OC6COC7(OC6C(O)C5O)C5CC6CC(C5)CC7C6)C(O)C4O)CC3)NC(=O)C(CC3CCCCC3)NC(=O)CNC(=O)C(CO)NC(=O)C(C(O)C3CNC(=N)N3C3OC(CO)C(O)C(O)C3O)NC2=O)N1 (single isomer, unassigned) [Example 222]",MIC Staphylococcus aureus (ATCC 29213),Staphylococcus sp.,>64 µg/mL
same,MIC Staphylococcus aureus (GC 1131),Staphylococcus sp.,>64 µg/mL
same,MIC Staphylococcus aureus (GC 3051),Staphylococcus sp.,>64 µg/mL
same,MIC Staphylococcus aureus (GC 3053),Staphylococcus sp.,>64 µg/mL
same,MIC Staphylococcus aureus (GC 4541),Staphylococcus sp.,>64 µg/mL
same,MIC Staphylococcus aureus (GC 4542),Staphylococcus sp.,>64 µg/mL
same,MIC Staphylococcus aureus-SMITH (GC 4543),Staphylococcus sp.,>64 µg/mL
same,MIC Staphylococcus aureus (GC 4544),Staphylococcus sp.,>64 µg/mL
same,MIC Staphylococcus aureus (GC 4545),Staphylococcus sp.,>64 µg/mL
same,MIC Staphylococcus haemolyticus (GC 4546),Staphylococcus sp.,>64 µg/mL
same,MIC Coagulase Negative Staphylococcus (GC 4547),Staphylococcus sp.,>64 µg/mL
same,MIC Coagulase Negative Staphylococcus (GC 4548),Staphylococcus sp.,>64 µg/mL
same,MIC Coagulase Negative Staphylococcus (GC 4549),Staphylococcus sp.,>64 µg/mL
same,MIC Coagulase Negative Staphylococcus (GC 4551),Staphylococcus sp.,>64 µg/mL
same,MIC Enterococcus avium (GC 4558),Enterococcus sp.,64 µg/mL
same,MIC Enterococcus faecalis (ATCC 29212),Enterococcus sp.,>64 µg/mL
same,MIC Enterococcus faecalis (GC 2242),Enterococcus sp.,>64 µg/mL
same,MIC Enterococcus faecalis (GC 2691),Enterococcus sp.,>64 µg/mL
same,MIC Enterococcus faecalis (GC 3059),Enterococcus sp.,>64 µg/mL
same,MIC Enterococcus faecalis (GC 4552),Enterococcus sp.,>64 µg/mL
same,MIC Enterococcus faecalis (GC 4553),Enterococcus sp.,>64 µg/mL
same,MIC Enterococcus faecalis (GC 4554),Enterococcus sp.,>64 µg/mL
same,MIC Enterococcus faecalis (GC 6189),Enterococcus sp.,>64 µg/mL
same,MIC Enterococcus faecium (GC 2243),Enterococcus sp.,>64 µg/mL
same,MIC Enterococcus faecium (GC 4556),Enterococcus sp.,>64 µg/mL
same,MIC Enterococcus faecium (GC 4557),Enterococcus sp.,64 µg/mL
same,MIC Enterococcus faecalis (ATCC 29212),"Enterococcus sp.; inoculum 5×10^5 CFU/mL, strain ATCC 29212",>64 µg/mL
same,MIC Enterococcus faecalis (GC 2242),"Enterococcus sp.; inoculum 5×10^5 CFU/mL, strain GC 2242",>64 µg/mL
same,MIC Enterococcus faecium (GC 2243),"Enterococcus sp.; inoculum 5×10^5 CFU/mL, strain GC 2243",>64 µg/mL
same,MIC Enterococcus faecalis (GC 2691),"Enterococcus sp.; inoculum 5×10^5 CFU/mL, strain GC 2691",>64 µg/mL
same,MIC Enterococcus faecalis (GC 3059),"Enterococcus sp.; inoculum 5×10^5 CFU/mL, strain GC 3059",>64 µg/mL
same,MIC Enterococcus faecalis (GC 4552),"Enterococcus sp.; inoculum 5×10^5 CFU/mL, strain GC 4552",>64 µg/mL
same,MIC Enterococcus faecalis (GC 4553),"Enterococcus sp.; inoculum 5×10^5 CFU/mL, strain GC 4553",>64 µg/mL
same,MIC Enterococcus faecalis (GC 4554),"Enterococcus sp.; inoculum 5×10^5 CFU/mL, strain GC 4554",>64 µg/mL
same,MIC Enterococcus faecium (GC 4556),"Enterococcus sp.; inoculum 5×10^5 CFU/mL, strain GC 4556",>64 µg/mL
same,MIC Enterococcus faecium (GC 4557),"Enterococcus sp.; inoculum 5×10^5 CFU/mL, strain GC 4557",64 µg/mL
same,MIC Enterococcus avium (GC 4558),"Enterococcus sp.; inoculum 5×10^5 CFU/mL, strain GC 4558",64 µg/mL
same,MIC Enterococcus faecalis (GC 6189),"Enterococcus sp.; inoculum 5×10^5 CFU/mL, strain GC 6189",>64 µg/mL
same,MIC Streptococcus agalactiae (GC 4564),Streptococcus sp.,>64 µg/mL
same,MIC Streptococcus pneumoniae (ATCC 6301),Streptococcus sp.,64 µg/mL
same,MIC Streptococcus pneumoniae (GC 1894),Streptococcus sp.,32 µg/mL
same,MIC Streptococcus pneumoniae (GC 4565),Streptococcus sp.,64 µg/mL
same,MIC Streptococcus pyogenes (GC 4563),Streptococcus sp.,64 µg/mL
same,MIC Streptococcus pneumoniae (ATCC 6301),"Streptococcus sp.; inoculum 5×10^5 CFU/mL, strain ATCC 6301",64 µg/mL
same,MIC Streptococcus pneumoniae (GC 1894),"Streptococcus sp.; inoculum 5×10^5 CFU/mL, strain GC 1894",32 µg/mL
same,MIC Streptococcus pyogenes (GC 4563),"Streptococcus sp.; inoculum 5×10^5 CFU/mL, strain GC 4563",64 µg/mL
same,MIC Streptococcus agalactiae (GC 4564),"Streptococcus sp.; inoculum 5×10^5 CFU/mL, strain GC 4564",>64 µg/mL
same,MIC Streptococcus pneumoniae (GC 4565),"Streptococcus sp.; inoculum 5×10^5 CFU/mL, strain GC 4565",64 µg/mL
same,MIC Escherichia coli (ATCC 25922),Escherichia coli,>64 µg/mL
same,MIC Escherichia coli (GC 4559),Escherichia coli,>64 µg/mL
same,MIC Escherichia coli (GC 4560),Escherichia coli,64 µg/mL
"CC(C)C(=O)Nc1cc(CC2NC(=O)C(C(C)c3ccccc3)NC(=O)CNC(=O)C(CO)NC(=O)C(C(O)C3CNC(=N)N3C3OC(CO)C(O)C(O)C3O)NC(=O)C(C(O)C3CNC(=N)N3)NC2=O)ccc1O (stereo not drawn) [Example 15, Cyclo[glycyl-β-methylphenylalanyl-3-(2-methylpropanamido)tyrosyl-3-(2-iminoimidazolidin-4-yl)seryl-3-(3-hexopyranosyl-2-iminoimidazolidin-4-yl)serylseryl]]",MIC Staphylococcus aureus (ATCC 29213),Staphylococcus sp.,>128 µg/mL
same,MIC Staphylococcus aureus (GC 1131),Staphylococcus sp.,>128 µg/mL
same,MIC Staphylococcus aureus (GC 3051),Staphylococcus sp.,>128 µg/mL
same,MIC Staphylococcus aureus (GC 3053),Staphylococcus sp.,>128 µg/mL
same,MIC Staphylococcus aureus (GC 4541),Staphylococcus sp.,>128 µg/mL
same,MIC Staphylococcus aureus (GC 4542),Staphylococcus sp.,>128 µg/mL
same,MIC Staphylococcus aureus-SMITH (GC 4543),Staphylococcus sp.,>128 µg/mL
same,MIC Staphylococcus aureus (GC 4544),Staphylococcus sp.,>128 µg/mL
same,MIC Staphylococcus aureus (GC 4545),Staphylococcus sp.,>128 µg/mL
same,MIC Staphylococcus haemolyticus (GC 4546),Staphylococcus sp.,>128 µg/mL
same,MIC Coagulase Negative Staphylococcus (GC 4547),Staphylococcus sp.,>128 µg/mL
same,MIC Coagulase Negative Staphylococcus (GC 4548),Staphylococcus sp.,>128 µg/mL
same,MIC Coagulase Negative Staphylococcus (GC 4549),Staphylococcus sp.,>128 µg/mL
same,MIC Coagulase Negative Staphylococcus (GC 4551),Staphylococcus sp.,>128 µg/mL
same,MIC Coagulase Negative Staphylococcus (GC 6257),Staphylococcus sp.; strain GC 6257,>128 µg/mL
same,MIC Enterococcus faecalis (ATCC 29212),Enterococcus sp.; strain ATCC 29212,>128 µg/mL
same,MIC Enterococcus faecalis (GC 2242),Enterococcus sp.; strain GC 2242,>128 µg/mL
same,MIC Enterococcus faecium (GC 2243),Enterococcus sp.; strain GC 2243,>128 µg/mL
same,MIC Enterococcus faecalis (GC 2691),Enterococcus sp.; strain GC 2691,>128 µg/mL
same,MIC Enterococcus faecalis (GC 3059),Enterococcus sp.; strain GC 3059,>128 µg/mL
same,MIC Enterococcus faecalis (GC 4552),Enterococcus sp.; strain GC 4552,>128 µg/mL
same,MIC Enterococcus faecalis (GC 4553),Enterococcus sp.; strain GC 4553,>128 µg/mL
same,MIC Enterococcus faecalis (GC 4554),Enterococcus sp.; strain GC 4554,>128 µg/mL
same,MIC Enterococcus faecium (GC 4556),Enterococcus sp.; strain GC 4556,>128 µg/mL
same,MIC Enterococcus faecium (GC 4557),Enterococcus sp.; strain GC 4557,>128 µg/mL
same,MIC Enterococcus avium (GC 4558),Enterococcus sp.; strain GC 4558,128 µg/mL
same,MIC Enterococcus faecalis (GC 6189),Enterococcus sp.; strain GC 6189,>128 µg/mL
same,MIC Streptococcus pneumoniae (ATCC 6301),Streptococcus sp.; strain ATCC 6301,>128 µg/mL
same,MIC Streptococcus pneumoniae (GC 1894),Streptococcus sp.; strain GC 1894,128 µg/mL
same,MIC Streptococcus pyogenes (GC 4563),Streptococcus sp.; strain GC 4563,>128 µg/mL
same,MIC Streptococcus agalactiae (GC 4564),Streptococcus sp.; strain GC 4564,128 µg/mL
same,MIC Streptococcus pneumoniae (GC 4565),Streptococcus sp.; strain GC 4565,64 µg/mL
same,MIC Escherichia coli (ATCC 25922),"Escherichia coli; strain ATCC 25922, broth dilution",>128 µg/mL
same,MIC Escherichia coli (GC 4559),"Escherichia coli; strain GC 4559, broth dilution",>128 µg/mL
same,MIC Escherichia coli (GC 4560),"Escherichia coli; strain GC 4560, broth dilution",128 µg/mL
